Laboratory results published in patent publication US20150352116A1, “HDAC INHIBITOR AND BTK INHIBITOR COMBINATIONS” (Pharmacyclics LLC, priority 2014, published 2015).

Columns and labels:
Type in all cases: cell-based
CLL cells [1] = experiment: sensitivity of CLL cells from extended-lymphocytosis or ibrutinib-resistant samples (FIG. 7); conditions: samples with extended lymphocytosis or that develop resistance to Ibrutinib
Method: (§1) FIG. 1A illustrates a nanostring miRNA expression data table. […] FIG. 1B illustrates HDAC1 knockdown in CLL cells. FIG. 2A illustrates a human BTK mRNA map. […] FIG. 2C illustrates a miRNA map. HDAC inhibition is associated with the accumulation of activating chromatin modifications (H3K4me3) that promote gene re-expression. FIG. 3A illustrates a miRNA expression data table. FIG. 3B illustrates miRNA expression in the presence or absence of 0.4 μM Abexinostat in unmutated 17p CLL. […] FIG. 5 illustrates an annexin apoptosis assay on CLL cells. […] FIG. 6 illustrates survival after leukemia in a TCL-1 mouse model. […] FIG. 9 illustrates an annexin apoptosis assay on CLL cells. […] FIG. 10 illustrates the expression of phosphorylated BTK Y223 in the presence of Abexinostat in AML cells.

CLL cells [2] = experiment: annexin apoptosis assay on CLL cells
From the text: FIG. 5 illustrates an annexin apoptosis assay on CLL cells.
FIG. 9 illustrates an annexin apoptosis assay on CLL cells.
as §1

Btk-directed miRNA = experiment: miRNA expression in unmutated 17p CLL; conditions: 0.4 μM Abexinostat, unmutated 17p (high risk) CLL, FIG. 3B
Method: FIG. 3A illustrates a miRNA expression data table. FIG. 3B illustrates miRNA expression in the presence or absence of 0.4 μM Abexinostat in unmutated 17p CLL.
as §1

CN(C)Cc1c(C(=O)NCCOc2ccc(C(=O)NO)cc2)oc2ccccc12 [Abexinostat, 3-[(Dimethylamino)methyl]-N-{2-[4-(hydroxycarbamoyl)phenoxy]ethyl}-1-benzofuran-2-carboxamide]
sensitivity of CLL cells to Abexinostat (CLL cells [1]): retaining sensitivity
killing of CLL cells (annexin apoptosis), combination effect (CLL cells [2]; Abexinostat in combination with ibrutinib, FIG. 5): synergized with ibrutinib to kill CLL cells
sensitivity of CLL cells to Abexinostat (annexin apoptosis) (CLL cells [2]; samples with extended lymphocytosis or that develop resistance to Ibrutinib, FIG. 9): retain sensitivity
effect on miRNA expression (Btk-directed miRNA): de-repression of Btk-directed miRNA
